How the values were obtained:
CD19+ B cells = test: Human B cell proliferation assay (3H-thymidine incorporation); settings: for cpm1 / cpm2 / cpm3 / mean cpm / mean of both: B cells, Experiment B; for mean of both: mean of donors 121 and 194
human PBMCs = test: Human PBMC cytokine response assay (IFN-γ and IFN-α in cell-free medium by ELISA), with or without cPLGA; format: cell-based; settings: for IFN-α mean / IFN-γ mean: mean of donors;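 for IFN-α (pg/ml) mean: 20 µg/mL compound for 24 hours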;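 for IFN-γ (pg/ml) mean: 20 µg/mL compound for 24 hours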
[1] = donor 28066, 20 ug/ml, 24 h, + PLGA = premixed with 100 μg/ml cPLGA
[2] = donor 28067, 20 ug/ml, 24 h, + PLGA = premixed with 100 μg/ml cPLGA
[3] = donor 28068, 20 ug/ml, 24 h, + PLGA = premixed with 100 μg/ml cPLGA
[4] = mean of donors 28065-28068, 20 ug/ml, 24 h, + PLGA = premixed with 100 μg/ml cPLGA

With “5′-TCGTCG-3′-C12-5′-ACGTTCG-3′-C12-5′-AGATGAT-3′ [Compound C-19]” the “B cell proliferation, in words” value (CD19+ B cells; 2 μg/ml, 48 h plus 8 h 3H-thymidine pulse) was “inactive”, the cpm1 (CD19+ B cells; donor 121, 2 μg/ml) was 858 cpm and the cpm2 (CD19+ B cells; donor 121, 2 μg/ml) was 1099 cpm. The cpm3 (CD19+ B cells; donor 121, 2 μg/ml) was 926 cpm, the mean cpm (CD19+ B cells; donor 121 mean, 2 μg/ml) was 961 cpm and the cpm1 (CD19+ B cells; donor 194, 2 μg/ml) was 371 cpm. It also gave a cpm2 (CD19+ B cells; donor 194, 2 μg/ml) of 403 cpm, a cpm3 (CD19+ B cells; donor 194, 2 μg/ml) of 312 cpm and a mean cpm (CD19+ B cells; donor 194 mean, 2 μg/ml) of 362 cpm. For the same substance, the mean of both (CD19+ B cells; 2 μg/ml) was 662 cpm, the “IFN-γ (pg/ml) 28065” value (human PBMCs; donor 28065 (high background), 20 ug/ml, 24 h, + PLGA = premixed with 100 μg/ml cPLGA, 1000 = outside assay limits) was 84 pg/mL and the “IFN-α (pg/ml) 28065” value (human PBMCs; donor 28065, 20 ug/ml, 24 h, + PLGA = premixed with 100 μg/ml cPLGA) was 0 pg/mL. The “IFN-α (pg/ml) 28066” value (human PBMCs; [1]) was 1 pg/mL, the “IFN-γ (pg/ml) 28066” value (human PBMCs; [1]) was 8 pg/mL and the “IFN-α (pg/ml) 28067” value (human PBMCs; [2]) was 0 pg/mL. For the same substance, the “IFN-γ (pg/ml) 28067” value (human PBMCs; [2]) was 1 pg/mL, the “IFN-α (pg/ml) 28068” value (human PBMCs; [3]) was 13 pg/mL and the “IFN-γ (pg/ml) 28068” value (human PBMCs; [3]) was 2 pg/mL. The “IFN-α (pg/ml) mean” value (human PBMCs; [4]) was 4 pg/mL, the “IFN-γ (pg/ml) mean” value (human PBMCs; [4]) was 24 pg/mL and the “immunomodulatory activity (IFN-γ / IFN-α secretion), in words” value (human PBMCs; used alone (no cPLGA)) was “did not show activity”.
“(5′-TCGACGT-3′-HEG)3-trebler-HEG-5′-TCGACGT-3′ [Compound C-125]” was tested, and the “B cell proliferation (FIG. 11), in words” value (CD19+ B cells; purified human B cells, 5 μg/ml, 96 h) was “induce very little B cell proliferation” and the “IFN-α induction (FIG. 10), in words” value (human PBMCs; PBMCs from 8 donors, 20 μg/ml, 24 h) was “induce high levels of IFN-α”.
“5′-TCGTCG-3′-HEG-5′-TCGTCG-3′-HEG-5′-TCGTCG-3′ [Compound C-22]” gave a cpm1 (CD19+ B cells; donor 121, 2 μg/ml) of 17147 cpm, a cpm2 (CD19+ B cells; donor 121, 2 μg/ml) of 14014 cpm and a cpm3 (CD19+ B cells; donor 121, 2 μg/ml) of 6844 cpm. It also gave a mean cpm (CD19+ B cells; donor 121 mean, 2 μg/ml) of 12668 cpm, a cpm1 (CD19+ B cells; donor 194, 2 μg/ml) of 6472 cpm and a cpm2 (CD19+ B cells; donor 194, 2 μg/ml) of 5540 cpm. For the same substance, the cpm3 (CD19+ B cells; donor 194, 2 μg/ml) was 3894 cpm, the mean cpm (CD19+ B cells; donor 194 mean, 2 μg/ml) was 5302 cpm and the mean of both (CD19+ B cells; 2 μg/ml) was 8985 cpm. It also gave an IFN-α (human PBMCs; Table 9, donor 28089) of 0 pg/mL, an IFN-γ (human PBMCs; Table 9, donor 28089) of 31 pg/mL and an IFN-α (human PBMCs; Table 9, donor 28090) of 46 pg/mL. It also gave an IFN-γ (human PBMCs; Table 9, donor 28090) of 15 pg/mL, an IFN-α (human PBMCs; Table 9, donor 28098) of 97 pg/mL and an IFN-γ (human PBMCs; Table 9, donor 28098) of 110 pg/mL. For the same substance, the IFN-α (human PBMCs; Table 9, donor 28099) was 247 pg/mL, the IFN-γ (human PBMCs; Table 9, donor 28099) was 91 pg/mL and the IFN-α mean (human PBMCs; Table 9) was 97 pg/mL. It also gave an IFN-γ mean (human PBMCs; Table 9) of 62 pg/mL, an IFN-α (human PBMCs; Table 10, donor 28042) of 12 pg/mL and an IFN-γ (human PBMCs; Table 10, donor 28042) of 206 pg/mL. For the same substance, the IFN-α (human PBMCs; Table 10, donor 28043) was 18 pg/mL, the IFN-γ (human PBMCs; Table 10, donor 28043) was 343 pg/mL and the IFN-α (human PBMCs; Table 10, donor 28044) was 67 pg/mL. It also gave an IFN-γ (human PBMCs; Table 10, donor 28044) of 736 pg/mL, an IFN-α (human PBMCs; Table 10, donor 28045) of 30 pg/mL and an IFN-γ (human PBMCs; Table 10, donor 28045) of 40 pg/mL. The IFN-α mean (human PBMCs; Table 10) was 32 pg/mL, the IFN-γ mean (human PBMCs; Table 10) was 331 pg/mL and the “activity when formulated with cPLGA, in words” value (human PBMCs; formulated with cPLGA) was “induced considerable IFN-γ and IFN-α when formulated with cPLGA”. For the same substance, the “IFN-γ induction, in words” value (human PBMCs; used alone) was “induce IFN-γ when used alone”.
